Laboratory results as given in patent publication US10961234B2, “Oxazole derivatives for use in the treatment of cancer” (LIFEARC, priority 2016, dated 2021).

Legend:
[1] = tested on: LM2 and MDA-MB-231 breast cancer cell lines; test: PAICS 2D cell proliferation assay; type: cell-based; settings: Homo sapiens; 72 hours incubation; cell line (LM2 or MDA-MB-231) not given
Protocol: Frozen cryovial stocks of LM2 and MDA-MB-231 breast cancer cell lines were thawed and cultured in 4.5 g/L glucose DMEM (31966-047, Invitrogen) supplemented with 10% Fetal Bovine Serum (10500-064, Invitrogen) until confluent in a T175 flask. Cells were incubated at 37° C. with 5% CO2 in a humidified incubator.
Cells were collected from T175 flasks by washing with PBS (10010-056, Invitrogen) and dissociated using Accutase (A6964, Sigma Aldrich). This was followed by centrifuging (1200 rpm, 5 min) and resuspending the cells in 10 ml of media containing 1% penicillin/streptomycin (15140-122, Invitrogen). Cells were counted by trypan blue exclusion method using an automated cell counter (Cellometer) and diluted to a concentration of 40,000/ml. 1000 cells were then seeded into 384-well white-walled plates (Corning, 3707) in a volume of 25 μl. Plates were incubated overnight at 37° C. with 5% CO2.
After 24 hours, PAICS compounds were added onto the assay plates using an HP D300 Digital Dispenser (Hewlett Packard). 10 mM stocks were used and dispensed as a 10 point concentration response curve (CRC) ½ log dilution series with a final top concentration of 100 μM. Controls were added onto each plate: positive controls included Staurosporine CRC (100 μM stock dispensed as a 10 point CRC ½ log dilution series with a final top concentration of 1 μM) and PAICS compound MRT00211919 (10 mM stock dispensed as a 10 point CRC ½ log dilution series with a final top concentration of 100 μM); a high control of Staurosporine (0.1 μM (LM2), 0.316 μM (MDA-MB-231) FAC) and a low control of media containing 1% DMSO. A final concentration of 1% DMSO was then added across the plates for normalisation. Following compound addition, assay plates were incubated for 72 hours at 37° C. with 5% CO2.
After 72 h incubation, dead and viable cells were measured in each assay plate. Cytotoxicity was assessed through fluorescent DNA staining using the CellTox™ Green Cytotoxicity Assay kit (G8743, Promega) following the manufacturer's multiplexing protocol. Impaired cell membrane integrity results in the access of dye to stain DNA allowing quantification of dead cells. Cell viability was determined following ATP quantification using the CellTiter-Glo® Luminescent Cell Viability Assay kit (G7572, Promega) following the manufacturer's protocol. ATP released from lysed cells allowed for the generation of a signal proportional to the number of cells present in the well. All endpoint reads were performed using the PheraSTAR Plus (BMG Labtech). Data is expressed as % viable cells and % dead cells against controls (mean±SEM of duplicate curves).

WT full length PAICS = target: T1, WT full length PAICS (Homo sapiens, UniProt P22234); test: Biochemical assay to measure PAICS activity (Transcreener ADP2 FI, SAICAR synthetase reaction); settings: PAICS 2.5 nM, 30 mins pre-incubation, ADP detection by fluorescence intensity
T1 construct: 5 μl WT full length PAICS (final assay concentration, fac, 2.5 nM) in basic buffer
T1 sequence (P22234 1-425): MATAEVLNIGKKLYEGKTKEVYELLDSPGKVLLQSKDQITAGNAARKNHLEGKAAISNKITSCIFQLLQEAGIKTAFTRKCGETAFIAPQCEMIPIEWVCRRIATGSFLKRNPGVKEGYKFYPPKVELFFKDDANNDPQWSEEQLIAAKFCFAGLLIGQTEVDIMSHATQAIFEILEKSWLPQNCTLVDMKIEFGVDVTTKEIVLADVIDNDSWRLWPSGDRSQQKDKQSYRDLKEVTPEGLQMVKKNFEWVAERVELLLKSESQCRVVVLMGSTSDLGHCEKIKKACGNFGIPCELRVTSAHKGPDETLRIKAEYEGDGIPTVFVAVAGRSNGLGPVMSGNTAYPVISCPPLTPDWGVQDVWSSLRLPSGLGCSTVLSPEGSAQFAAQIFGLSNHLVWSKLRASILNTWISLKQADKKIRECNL
Source text: The biochemical assay was used to measure PAICS SAICAR synthetase-mediated conversion of CAIR, aspartic acid and ATP to SAICAR, ADP and inorganic phosphate (PI), post-AIR/CAIR equilibration (see FIG. 3). This was achieved by detecting the ADP generated during the reaction, using Bellbrook Lab's Transcreener ADP^2 FI assay. An increase in the fluorescence intensity is directly proportional to the amount of PAICS activity.
The Transcreener ADP^2 FI assay is a homogeneous competitive displacement fluorescence intensity assay which uses direct immunodetection of ADP. Displacement of the tracer by ADP causes an increase in the fluorescence at excitation 590 nm and emission 617 nm (FIG. 3).
5 μl WT full length PAICS (final assay concentration, fac, 2.5 nM) in basic buffer, added to black, non-binding, 384-well plates (Corning #3575), columns 1 to 22.5 μl basic buffer was added to columns 23+24 (negative control). PAICS stock at 31.9 μM from the PI's lab (Steve Firestine). Basic buffer contained 50 mM Tris-HCl pH8 and 0.5 mM EDTA, fac.
1 μl compound in 100% DMSO added per well, or 1 μl 100% DMSO to positive controls (columns 1+2) and negative controls (columns 23+24). Final assay top concentration of compound either 1 mM or 30 μM, serially diluted with half-log dilutions across the plate in duplicate (one 10-point concentration response curve across wells 3 to 12, another across 13 to 22). Compounds pre-incubated with PAICS enzyme for 30 mins at RT.
2 μl CAIR added (fac 10 μM) in basic buffer plus 25 mM MgCl2 and 50 mM KHCO3 fac to all wells. CAIR stock 50 mM from Steve Firestine's lab. 1 hr RT incubation for AIR-CAIR equilibration. NB: ˜50% CAIR is decarboxylated during equilibration therefore 5 μM remains for the synthetase reaction.
2 μl ATP/aspartic acid added (fac 30 μM/180 μM) in reaction buffer to all wells. 30 mins RT incubation for appropriate level of ATP turnover. Reaction buffer contained basic buffer plus 10 mM DTT, 0.01% BSA and 0.01% Brij 35, fac.
10 μl ADP detection reagent added to all wells (as per instructions, Transcreener ADP^2 FI kit, BellBrook Labs #3013-10K). Incubation for 1 h at RT to allow antibody equilibration. Fluorescence intensity determined using a Tecan Safire2 (excitation at 590 nm, emission at 617 nm).

SMILES | EC50 [1] [nM] | IC50 (WT full length PAICS) [nM]
N#Cc1nn(C2CCNCC2)cc1-c1ccc(Cl)c(NC(=O)c2coc(N)n2)c1 [Example 53, 2-Amino-N-(2-chloro-5-(3-cyano-1-(piperidin-4-yl)-1H-pyrazol-4-yl)phenyl)oxazole-4-carboxamide] | 100 to 250 | 10 to 25
Nc1nc(C(=O)Nc2cc(-c3cnc(OC4CCNCC4)nc3)ccc2Cl)co1 [Example 82, 2-Amino-N-{2-chloro-5-[2-(piperidin-4-yloxy)pyrimidin-5-yl]phenyl}-1,3-oxazole-4-carboxamide] | 250 to 500 | 10 to 25
Nc1nc(C(=O)Nc2cc(-c3ccc(CN4CC5CNCC5C4)nc3)ccc2Cl)co1 (stereo not shown) [Example 79, 2-Amino-N-{2-chloro-5-[6-(hexahydropyrrolo[3,4-c]pyrrol-2(1H)-ylmethyl)pyridin-3-yl]phenyl}-1,3-oxazole-4-carboxamide] | 250 to 500 | 10 to 25
CNC1CCN(Cc2ncc(-c3ccc(Cl)c(NC(=O)c4coc(N)n4)c3)s2)CC1 [Example 91, 2-Amino-N-[2-chloro-5-(2-{[4-(methylamino)piperidin-1-yl]methyl}-1,3-thiazol-5-yl)phenyl]-1,3-oxazole-4-carboxamide] | < 100 | < 10
CN1CCN(CCn2cc(-c3ccc(Cl)c(NC(=O)c4coc(N)n4)c3)cn2)CC1 [Example 57, 2-Amino-N-(2-chloro-5-(1-(2-(4-methylpiperazin-1-yl)ethyl)-1H-pyrazol-4-yl)phenyl)oxazole-4-carboxamide] | 250 to 500 | 25 to 100
CCNCCn1cc(-c2ccc(Cl)c(NC(=O)c3coc(N)n3)c2)cn1 [Example 56, 2-Amino-N-(2-chloro-5-(1-(2-(ethylamino)ethyl)-1H-pyrazol-4-yl)phenyl)oxazole-4-carboxamide] | 100 to 250 | 10 to 25
CN(C)CCCOc1ccc(-c2ccc(Cl)c(NC(=O)c3coc(N)n3)c2)nc1 [Example 93, 2-Amino-N-(2-chloro-5-{5-[3-(dimethylamino)propoxy]pyridin-2-yl}phenyl)-1,3-oxazole-4-carboxamide] | 250 to 500 | 25 to 100
Nc1nc(C(=O)Nc2cc(-c3cnc(OC4CCNCC4)s3)ccc2Cl)co1 [Example 87, 2-Amino-N-{2-chloro-5-[2-(piperidin-4-yloxy)-1,3-thiazol-5-yl]phenyl}-1,3-oxazole-4-carboxamide] | < 100 | < 10
CNCCCOc1ccc(-c2ccc(Cl)c(NC(=O)c3coc(N)n3)c2)cn1 [Example 70, 2-Amino-N-(2-chloro-5-(6-(3-(methylamino)propoxy)pyridin-3-yl)phenyl)oxazole-4-carboxamide] | 100 to 250 | 10 to 25
CN(C)CCOc1ccc(-c2ccc(Cl)c(NC(=O)c3coc(N)n3)c2)cc1 [Example 75, 2-Amino-N-{4-chloro-4′-[2-(dimethylamino)ethoxy]biphenyl-3-yl}-1,3-oxazole-4-carboxamide] | 100 to 250 | 25 to 100
Nc1nc(C(=O)Nc2cc(-c3cnn(CCN4CCNCC4)c3)ccc2Cl)co1 [Example 81, 2-Amino-N-(2-chloro-5-{1-[2-(piperazin-1-yl)ethyl]-1H-pyrazol-4-yl}phenyl)-1,3-oxazole-4-carboxamide] | 250 to 500 | 25 to 100

The next lines start with the values.

EC50 [1] [nM] | IC50 (WT full length PAICS) [nM] | SMILES
250 to 500 | > 100 | CN(C)CCCC(=O)N1CCC(n2cc(-c3ccc(Cl)c(NC(=O)c4coc(N)n4)c3)cn2)CC1 [Example 64, 2-Amino-N-[2-chloro-5-(1-{1-[4-(dimethylamino)butanoyl]piperidin-4-yl}-1H-pyrazol-4-yl)phenyl]-1,3-oxazole-4-carboxamide]
< 100 | < 10 | CNC1CCC(n2cc(-c3ccc(Cl)c(NC(=O)c4coc(N)n4)c3)cn2)CC1 (mixture of isomers) [Example 80, 2-Amino-N-(2-chloro-5-{1-[4-(methylamino)cyclohexyl]-1H-pyrazol-4-yl}phenyl)-1,3-oxazole-4-carboxamide]
100 to 250 | > 100 | CN(C)CC(=O)N1CCC(n2cc(-c3ccc(Cl)c(NC(=O)c4coc(N)n4)c3)cn2)CC1 [Example 62, 2-Amino-N-(2-chloro-5-{1-[1-(N,N-dimethylglycyl)piperidin-4-yl]-1H-pyrazol-4-yl}phenyl)-1,3-oxazole-4-carboxamide]
100 to 250 | > 100 | Nc1nc(C(=O)Nc2cc(-c3cnn(C4CCN(CCO)CC4)c3)ccc2Cl)co1 [Example 66, 2-Amino-N-(2-chloro-5-{1-[1-(2-hydroxyethyl)piperidin-4-yl]-1H-pyrazol-4-yl}phenyl)-1,3-oxazole-4-carboxamide]
250 to 500 | 25 to 100 | Nc1nc(C(=O)Nc2cc(-c3cnn(C4CCNCC4)c3)ccc2Cl)co1 [Example 40]
250 to 500 | 25 to 100 | CN(C)CCC(=O)N1CC(Cn2cc(-c3ccc(Cl)c(NC(=O)c4coc(N)n4)c3)cn2)C1 [Example 65, 2-Amino-N-[2-chloro-5-{1-([1-(N,N-dimethyl-beta-alanyl)azetidin-3-yl]methyl}-1H-pyrazol-4-yl)phenyl]-1,3-oxazole-4-carboxamide]
100 to 250 | > 100 | Nc1nc(C(=O)Nc2cc(-c3cnn(C4CCCNC4)c3)ccc2Cl)co1 (stereo not shown) [Example 42, 2-Amino-N-{2-chloro-5-[1-(piperidin-3-yl)-1H-pyrazol-4-yl]phenyl}-1,3-oxazole-4-carboxamide]
250 to 500 | > 100 | CN(C)CCC(=O)N1CCC(n2cc(-c3ccc(Cl)c(NC(=O)c4coc(N)n4)c3)cn2)CC1 [Example 63, 2-Amino-N-(2-chloro-5-{1-[1-(N,N-dimethyl-beta-alanyl)piperidin-4-yl]-1H-pyrazol-4-yl}phenyl)-1,3-oxazole-4-carboxamide]
100 to 250 | > 100 | CN1CCC(n2cc(-c3ccc(Cl)c(NC(=O)c4coc(N)n4)c3)cn2)CC1 [Example 44, 2-Amino-N-{2-chloro-5-[1-(1-methylpiperidin-4-yl)-1H-pyrazol-4-yl]phenyl}-1,3-oxazole-4-carboxamide]
